Laboratory results from US9556139B2, “6-substituted phenoxychroman carboxylic acid derivatives” (Array BioPharma Inc., priority 2008, dated 2017).
Counter-ions that a name gives are not always drawn.

Target: human DP2 (Homo sapiens (Human), UniProt Q9Y5Y4)
Assay: DP-2 Binding Inhibition Assay (3H-PGD2 binding to membranes of K562 cells expressing DP2)
Conditions: read-out: EC50 (Nm) 1% HSA; inhibition of 3H-PGD2 binding, 1% HSA
Description: DP-2 Binding Inhibition Assay
The coding sequence of human DP2 was introduced into the human Leukemic cell line K562 by electroporation and stable clones expressing DP2 were obtained by limiting dilution followed by cell surface staining with a rat monoclonal antibody specific for human DP2. Membranes were prepared from one of these DP2 expressing clones and used to determine the ability of compounds of the present invention to inhibit binding of prostaglandin D2 (PGD2) to its receptor DP2 in the presence of one or more of the following serum protein concentrations, 0.1% BSA, 1% HSA or 4% HSA, by the following procedure. Membranes (1.25 μg/well for 0.1% BSA and 6 μg/well for 1% or 4% HSA) were mixed with ^3H-labeled PGD2 and various concentrations of test compounds in 150 μL of binding buffer (50 mM Tris-HCl, pH 7.4, 40 mM MgCl2, 0.1% bovine serum albumin, 0.1% NaN3) in 96-well U-bottom polypropylene plates. After incubation for 60 minutes at room temperature, the assay was transferred to a filtration plate (#MAFB; Millipore Corporation, Bedford, Mass.), and washed three times with binding buffer. Radioactivity was measured by a scintillation counter (TopCount; PerkinElmer Life Sciences, Boston, Mass.). Nonspecific binding was determined by incubations in the presence of 1 μM unlabeled PGD2 or 5 μM of a known DP2 antagonist. EC50 values for inhibition of binding were determined for each compound tested from the inflexion point of a standard 4-parameter logistical curve fitted to the values obtained.

Sequence of human DP2 (Q9Y5Y4 whole entry): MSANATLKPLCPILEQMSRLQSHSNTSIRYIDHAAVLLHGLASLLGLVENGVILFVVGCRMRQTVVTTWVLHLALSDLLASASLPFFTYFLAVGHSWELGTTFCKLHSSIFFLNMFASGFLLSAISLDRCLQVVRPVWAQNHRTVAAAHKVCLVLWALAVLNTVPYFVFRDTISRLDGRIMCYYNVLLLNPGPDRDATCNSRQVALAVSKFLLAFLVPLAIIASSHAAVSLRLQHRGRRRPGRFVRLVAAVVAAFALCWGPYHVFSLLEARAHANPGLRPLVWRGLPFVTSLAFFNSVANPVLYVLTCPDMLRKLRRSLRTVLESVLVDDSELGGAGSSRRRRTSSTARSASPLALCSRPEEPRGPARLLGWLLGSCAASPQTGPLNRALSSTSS

| EC50 | Structure (SMILES) |
| --- | --- |
| 17.3 nM | COc1cc(C2CC2)ccc1CCNC(=O)c1ccc(Oc2cc3c(cc2Cl)C(C(=O)O)CCO3)cc1 (stereo not shown) [Example 36, Sodium 6-chloro-7-(4-(4-cyclopropyl-2-methoxyphenethylcarbamoyl)phenoxy)chroman-4-carboxylate] |
| 1370 nM | N#Cc1cc2c(cc1Oc1ccc(C(=O)Nc3ccc4c(c3)CNCC4)cc1)OCCC2C(=O)O (stereo not shown) [Example 45, 6-Cyano-7-(4-(1,2,3,4-tetrahydroisoquinolin-7-ylcarbamoyl)phenoxy)chroman-4-carboxylic acid hydrochloride] |
| 15.8 nM | O=C(NCCc1ccc(Cl)cc1)c1ccc(Oc2c(Cl)cc3c(c2Cl)OCCC3C(=O)O)cc1 (stereo not shown) [Example 46, Sodium 6,8-dichloro-7-(4-(4-chlorophenethylcarbamoyl)phenoxy)chroman-4-carboxylate] |
| 12.1 nM | N#Cc1cc2c(cc1Oc1ccc(C(=O)NC3CC3c3ccccc3)cc1)OCCC2C(=O)O (stereo not shown) [Example 47, 7-(4-((2-Phenylcyclopropyl)carbamoyl)phenoxy)-6-cyano-3,4-dihydro-2H-chromene-4-carboxylic acid] |
| 30.7 nM | COc1cccc(CCNC(=O)c2ccc(Oc3cc4c(cc3C#N)C(C(=O)O)CCO4)cc2)c1 (stereo not shown) [Example 48, 7-(4-((3-Methoxyphenethyl)carbamoyl)phenoxy)-6-cyano-3,4-dihydro-2H-chromene-4-carboxylic acid] |
| 22.5 nM | N#Cc1cc2c(cc1Oc1ccc(C(=O)NCCc3ccc(F)cc3)cc1)OCCC2C(=O)O (stereo not shown) [Example 49, 7-(4-((4-Fluorophenethyl)carbamoyl)phenoxy)-6-cyano-3,4-dihydro-2H-chromene-4-carboxylic acid] |
| 11 nM | N#Cc1cc2c(cc1Oc1ccc(C(=O)NCCc3ccc(C(F)(F)F)cc3)cc1)OCCC2C(=O)O (stereo not shown) [Example 50, 7-(4-((4-(Trifluoromethyl)phenethyl)carbamoyl)phenoxy)-6-cyano-3,4-dihydro-2H-chromene-4-carboxylic acid] |
| 12.1 nM | N#Cc1cc2c(cc1Oc1ccc(C(=O)NC3CC3c3ccc(Cl)cc3)cc1)OCCC2C(=O)O (stereo not shown) [Example 51, 7-(4-((2-(4-Chlorophenyl)cyclopropyl)carbamoyl)phenoxy)-6-cyano-3,4-dihydro-2H-chromene-4-carboxylic acid] |
| 90.8 nM | N#Cc1cc2c(cc1Oc1ccc(C(=O)NC3COc4ccccc4C3)cc1)OCCC2C(=O)O (stereo not shown) [Example 52, 7-(4-(chroman-3-ylcarbamoyl)phenoxy)-6-cyanochroman-4-carboxylic acid] |
| 60.5 nM | COc1ccc2c(c1)CCC(NC(=O)c1ccc(Oc3cc4c(cc3C#N)C(C(=O)O)CCO4)cc1)C2 (stereo not shown) [Example 53, 6-Cyano-7-(4-(6-methoxy-1,2,3,4-tetrahydronaphthalen-2-ylcarbamoyl)phenoxy)chroman-4-carboxylic acid] |
| 109 nM | N#Cc1cc2c(cc1Oc1ccc(C(=O)NCc3cccc4ccccc34)cc1)OCCC2C(=O)O (stereo not shown) [Example 54, 6-Cyano-7-(4-(naphthalen-1-ylmethylcarbamoyl)phenoxy)chroman-4-carboxylic acid] |
| 12.1 nM | N#Cc1cc2c(cc1Oc1ccc(C(=O)NCCc3cccc4ccccc34)cc1)OCCC2C(=O)O (stereo not shown) [Example 55, 6-Cyano-7-(4-(2-(naphthalen-1-yl)ethylcarbamoyl)phenoxy)chroman-4-carboxylic acid] |
| 14.2 nM | N#Cc1cc2c(cc1Oc1ccc(C(=O)NCCc3ccc4ccccc4c3)cc1)OCCC2C(=O)O (stereo not shown) [Example 56, 6-Cyano-7-(4-(2-(naphthalen-2-yl)ethylcarbamoyl)phenoxy)chroman-4-carboxylic acid] |
| 18.9 nM | CC(C)(C)c1ccc(CCNC(=O)c2ccc(Oc3cc4c(cc3C#N)C(C(=O)O)CCO4)cc2)cc1 (stereo not shown) [Example 57, 7-(4-(4-tert-Butylphenethylcarbamoyl)phenoxy)-6-cyanochroman-4-carboxylic acid] |

Same assay, conditions: read-out: EC50 (nM) 4% HSA; inhibition of 3H-PGD2 binding, 4% HSA

| EC50 | Structure (SMILES) |
| --- | --- |
| 126 nM | O=C(NCCc1ccc(Cl)cc1-c1ccccc1Cl)c1ccc(Oc2cc3c(cc2Cl)C(C(=O)O)CCO3)cc1 (stereo not shown) [Example 33, Sodium 6-chloro-7-(4-(2-(2′,5-dichlorobiphenyl-2-yl)ethylcarbamoyl)phenoxy)chroman-4-carboxylate] |
| 64.3 nM | COc1cc(Br)ccc1CCNC(=O)c1ccc(Oc2cc3c(cc2Cl)C(C(=O)O)CCO3)cc1 (stereo not shown) [Example 35, Sodium 7-(4-(4-bromo-2-methoxyphenethylcarbamoyl)phenoxy)-6-chlorochroman-4-carboxylate] |
| 93 nM | COc1cc(C2CC2)ccc1CCNC(=O)c1ccc(Oc2cc3c(cc2Cl)C(C(=O)O)CCO3)cc1 (stereo not shown) [Example 36, Sodium 6-chloro-7-(4-(4-cyclopropyl-2-methoxyphenethylcarbamoyl)phenoxy)chroman-4-carboxylate] |
| 366 nM | O=C(NCCc1ccc(Cl)cc1)c1ccc(Oc2c(Cl)cc3c(c2Br)OCCC3C(=O)O)cc1 (stereo not shown) [Example 38, Sodium 8-bromo-6-chloro-7-(4-(4-chlorophenethylcarbamoyl)phenoxy)chroman-4-carboxylate] |
| 68.2 nM | O=C(NCCc1ccc(Cl)cc1)c1ccc(Oc2c(C3CC3)cc3c(c2C2CC2)OCCC3C(=O)O)cc1 (stereo not shown) [Example 39, Sodium 7-(4-(4-chlorophenethylcarbamoyl)phenoxy)-6,8-dicyclopropylchroman-4-carboxylate] |
| 42.2 nM | O=C(NCCc1ccc(Cl)cc1Cl)c1ccc(Oc2c(C3CC3)cc3c(c2C2CC2)OCCC3C(=O)O)cc1 (stereo not shown) [Example 40, Sodium 6,8-dicyclopropyl-7-(4-(2,4-dichlorophenethylcarbamoyl)phenoxy)chroman-4-carboxylate] |
| 150 nM | O=C(NCCc1ccc(Cl)cc1)c1ccc(Oc2cc3c(cc2C2CC2)C(C(=O)O)CCO3)cc1 (stereo not shown) [Example 41, Sodium 7-(4-(4-chlorophenethylcarbamoyl)phenoxy)-6-cyclopropylchroman-4-carboxylate] |
| 73.8 nM | O=C(NCCc1ccc(Cl)cc1Cl)c1ccc(Oc2cc3c(cc2C2CC2)C(C(=O)O)CCO3)cc1 (stereo not shown) [Example 42, Sodium 6-cyclopropyl-7-(4-(2,4-dichlorophenethylcarbamoyl)phenoxy)chroman-4-carboxylate] |
| 51.5 nM | O=C(NCCc1ccc(Cl)cc1Cl)c1ccc(Oc2c(Cl)cc3c(c2C2CC2)OCCC3C(=O)O)cc1 (stereo not shown) [Example 43, Sodium 6-chloro-8-cyclopropyl-7-(4-(2,4-dichlorophenethylcarbamoyl)phenoxy)chroman-4-carboxylate] |
| 3480 nM | CN(C)Cc1ccc(CCNC(=O)c2ccc(Oc3cc4c(cc3C#N)C(C(=O)O)CCO4)cc2)cc1 (stereo not shown) [Example 44, 6-Cyano-7-(4-(4-((dimethylamino)methyl)phenethylcarbamoyl)phenoxy)chroman-4-carboxylic acid] |
| 176 nM | O=C(NCCc1ccc(Cl)cc1)c1ccc(Oc2c(Cl)cc3c(c2Cl)OCCC3C(=O)O)cc1 (stereo not shown) [Example 46, Sodium 6,8-dichloro-7-(4-(4-chlorophenethylcarbamoyl)phenoxy)chroman-4-carboxylate] |
| 14.8 nM | N#Cc1cc2c(cc1Oc1ccc(C(=O)NC3CC3c3ccc(Cl)cc3)cc1)OCCC2C(=O)O (stereo not shown) [Example 51, 7-(4-((2-(4-Chlorophenyl)cyclopropyl)carbamoyl)phenoxy)-6-cyano-3,4-dihydro-2H-chromene-4-carboxylic acid] |
| 434 nM | N#Cc1cc2c(cc1Oc1ccc(C(=O)NCCc3ccc(-c4ccccc4)cc3)cc1)OCCC2C(=O)O (stereo not shown) [Example 58, 7-(4-(2-(Biphenyl-4-yl)ethylcarbamoyl)phenoxy)-6-cyanochroman-4-carboxylic acid] |
| 158 nM | O=C(NCCc1ccc(-c2ccccc2)cc1)c1ccc(Oc2cc3c(cc2Cl)C(C(=O)O)CCO3)cc1 (stereo not shown) [Example 59] |
| 305 nM | COc1ccccc1CCNC(=O)c1ccc(Oc2cc3c(cc2Cl)C(C(=O)O)CCO3)cc1 (stereo not shown) [Example 63, Sodium 6-chloro-7-(4-(2-methoxyphenethylcarbamoyl)phenoxy)chroman-4-carboxylate] |
| 153 nM | O=C(NCCc1ccccc1OC(F)(F)F)c1ccc(Oc2cc3c(cc2Cl)C(C(=O)O)CCO3)cc1 (stereo not shown) [Example 64, Sodium 6-chloro-7-(4-(2-(trifluoromethoxy)phenethylcarbamoyl)phenoxy)chroman-4-carboxylate] |
| 80.4 nM | O=C(NCCc1ccccc1Oc1ccccc1)c1ccc(Oc2cc3c(cc2Cl)C(C(=O)O)CCO3)cc1 (stereo not shown) [Example 65, Sodium 6-chloro-7-(4-(2-phenoxyphenethylcarbamoyl)phenoxy)chroman-4-carboxylate] |
| 68.2 nM | Cc1ccc(-c2cccc(NC(=O)c3ccc(Oc4cc5c(cc4C#N)C(C(=O)O)CCO5)cc3)c2)cc1C (stereo not shown) [Example 66, 6-Cyano-7-(4-(3′,4′-dimethylbiphenyl-3-ylcarbamoyl)phenoxy)chroman-4-carboxylic acid] |
| 173 nM | N#Cc1cc2c(cc1Oc1ccc(C(=O)Nc3cccc(-c4ccccc4)c3)cc1)OCCC2C(=O)O (stereo not shown) [Example 67, 7-(4-(Biphenyl-3-ylcarbamoyl)phenoxy)-6-cyanochroman-4-carboxylic acid] |
| 206 nM | N#Cc1cc2c(cc1Oc1ccc(C(=O)Nc3ccc(-c4ccccc4)cc3)cc1)OCCC2C(=O)O (stereo not shown) [Example 68, 7-(4-(Biphenyl-4-ylcarbamoyl)phenoxy)-6-cyanochroman-4-carboxylic acid] |
| 240 nM | N#Cc1cc2c(cc1Oc1ccc(C(=O)Nc3ccc(-c4ccc(Cl)cc4)cc3)cc1)OCCC2C(=O)O (stereo not shown) [Example 69, 7-(4-(4′-Chlorobiphenyl-4-ylcarbamoyl)phenoxy)-6-cyanochroman-4-carboxylic acid] |
| 995 nM | Cc1nccc(-c2cccc(NC(=O)c3ccc(Oc4cc5c(cc4C#N)C(C(=O)O)CCO5)cc3)c2)n1 (stereo not shown) [Example 70, 6-Cyano-7-(4-(3-(2-methylpyrimidin-4-yl)phenylcarbamoyl)phenoxy)chroman-4-carboxylic acid] |
| 119 nM | O=C(Nc1ccc(F)c(-c2ccc(Cl)cc2)c1)c1ccc(Oc2cc3c(cc2Cl)C(C(=O)O)CCO3)cc1 (stereo not shown) [Example 71, 6-Chloro-7-(4-(4′-chloro-6-fluorobiphenyl-3-ylcarbamoyl)phenoxy)chroman-4-carboxylic acid] |
